Patent US4618610A, “Triazine derivatives, and pharmaceutical compositions comprising the same” (Fujisawa Pharmaceutical Co., Ltd., priority 1983, dated 1986)
pIC50: −log10 of the molar value. Where two headings read alike, the source gives them in different places.

Key:
[1] = system: ethanol ulcer; assay: Test methods C: ethanol ulcer (antiulcer activity); format: in vivo, rat (Sprague-Dawley); details: 32 mg/kg orally, 30 minutes before absolute ethanol (5 ml/kg)
Description: Five male Sprague-Dawley rats, aged 7 weeks and weighing about 200 g, were used per group for the study on ethanol ulcer after the fast for 24 hours.
Test compound was suspended in 0.1% methylcellulose aqueous solution, and the suspension (5 ml/kg) was orally given to each rat.
The control group was given a vehicle, i.e. 0.1% methylcellulose aqueous solution (5 ml/kg), alone in the same way.
Absolute ethanol (5 ml/kg) was orally administered 30 minutes after dosing with test compound, and one hour later, the rats were sacrificed and their stomachs were removed. The area of ulcers of each rat was measured. The mean area (mm^2) in the medicated group was compared with that in the control group.

[2] = system: platelet; assay: Test Method B: inhibition of platelet aggregation in platelet rich plasma; format: cell-based; details: Oryctolagus cuniculus, rabbit PRP, 37° C.
Description: Platelet rich plasma (PRP) which contains 6.5-7.5×10^8 platelet/ml was prepared from rabbit blood. To the 200 ul of PRP, 5 μl of calcium chloride (1 mM) and 50 μl of pH 7.4 Tris-acetate solution (5 mM) containing 120 mM NaCl and test compound were added successively, and then stirred for 2 min. at 37° C. To the solution, 5 μl of adenosine diphosphate (ADP) (2.5 μM) or collagen (2.5 ug/ml) was added as an aggregation inducer. Aggregation was measured by using an aggregometer (NKK HEMA TRACER 1).

[3] = system: blood pressure; assay: Test method A: antihypertensive activity, oral, in uninephrectomized DOCA/saline rats; format: in vivo, rat (Wister); details: orally, DOCA rats, mean arterial pressure
Description: Five-week old male Wister rats were uninephrectomized under anesthesia. Deoxycorticosterone […] (DOCA) (30 mg/kg), suspended in peanut oil, was injected subcutaneously twice a week and 1% saline was substituted for the drinking water. Animals with mean blood pressure 150-200 mmHg were used for experiment between 5 and 7 weeks after surgery.
The test compounds were administered orally.
Blood pressure was measured at the femoral artery by means of a pressure transducer and recorded as electrically integrated values of mean arterial pressure.
a: The test compound were administered orally in a dose of 1 mg/kg.
b: The test compound were administered orally in dose of 0.1 mg/kg.

[4] = ADP (2.5 μM) as aggregation inducer, read-out: ID50 ADP (platelet aggregation)
[5] = collagen (2.5 ug/ml) as aggregation inducer, read-out: ID50 Collagen (platelet aggregation)

Row | SMILES | Effect (mean ulcer area compared with control group) [1] [%] | pIC50 [2, 4] | pIC50 [2, 5] | Effect Max (mean ratio of maximum decrease of blood pressure) ([3]; dose a: 1 mg/kg) [%] | Effect Max (mean ratio of maximum decrease of blood pressure) ([3]; dose b: 0.1 mg/kg) [%]
1 | CC(=O)Nc1ccc(C2=NNC(=S)NC2C)cc1 (stereo not shown) [Example 23-(3), 6-(4-acetamidophenyl)-5-methyl-4,5-dihydro-1,2,4-triazin-3(2H)-thione] | 87.0 | – | – | – | –
2 | CCOC(=O)Nc1ccc(C2=NNC(=O)NC2C)cc1 (stereo not shown) [Example 24-(4), 6-(4-Ethoxycarbonylaminophenyl)-5-methyl-4,5-dihydro-1,2,4-triazin-3(2H)-one] | – | 6.42 | 7.16 | 54.5 | 28.6
3 | CC1NC(=O)NN=C1c1ccc(NC(=O)C2CC2)cc1 (stereo not shown) [Example 24-(10), 6-(4-Cyclopropanecarbonylaminophenyl)-5-methyl-4,5-dihydro-1,2,4-triazin-3(2H)-one] | – | 7.47 | 8.51 | – | 41.1
4 | CNC(=O)Nc1ccc(C2=NNC(=O)NC2C)cc1 (stereo not shown) [Example 6, 6-[4-(3-methylureido)phenyl]-5-methyl-4,5-dihydro-1,2,4-triazin-3(2H)-one] | – | 6.13 | 6.39 | 43.1 | 6.6
5 | CC(=O)Nc1ccc(C2=NNC(=O)NC2C)cc1 (stereo not shown) [Example 1-(3), 6-(4-acetamidophenyl)-5-methyl-4,5-dihydro-1,2,4-triazin-3(2H)-one] | – | 6.21 | 6.66 | 48.9 | 19.2
